Test results taken from the NIST ThermoML archive (doi:10.1016/j.jct.2009.07.017).

How the values were obtained:
[1] = xn = mol fraction of the nth substance listed; conditions: 101.3 kPa, Liquid, Vibrating tube method
[2] = refractive index (Na D-line) (dimensionless); conditions: 298.15 K; 101.33 kPa; Liquid; Standard Abbe refractometry
[3] = 298.15 K; 101.33 kPa; Liquid; Vibrating tube method

c1ccccc1 [benzene] + CCCCCCCCC
[1], x2 = 0
Conditions	mass density [kg/m3]
283.15 K	889.51
298.15 K	873.57

c1ccccc1 [benzene] + CCCCCCCC
[1], x2 = 0
Conditions	mass density [kg/m3]
283.15 K	889.51
298.15 K	873.57

CCOS(=O)(=O)[O-].CC[n+]1cccc(C)c1 [1-ethyl-3-methylpyridinium ethylsulfate]
Conditions	mass density [kg/m3]	refractive index
[2]	–	1.50591
[3]	1219.61	–

CCCCCCCC [octane] + c1ccccc1
mass density [kg/m3], [1]
Conditions	x1 = 0.1024	x1 = 0.2013	x1 = 0.3006	x1 = 0.4234	x1 = 0.5001	x1 = 0.5985	x1 = 0.6982	x1 = 0.7972	x1 = 0.9031	x1 = 1
283.15 K	855.9	828.82	806.11	782.24	769.31	754.84	741.81	730.25	719.42	710.5
298.15 K	840.84	814.43	792.21	768.91	756.54	742.05	729.34	718.02	707.31	698.6

CCCCCCCCC [nonane] + c1ccccc1
mass density [kg/m3], [1]
Conditions	x1 = 0.0982	x1 = 0.1996	x1 = 0.304	x1 = 0.4001	x1 = 0.497	x1 = 0.5995	x1 = 0.6989	x1 = 0.7959	x1 = 0.8928	x1 = 1
283.15 K	856.81	829.82	807.64	790.32	775.74	762.31	751.53	741.95	733.72	725.51
298.15 K	841.94	815.82	794.17	777.31	763.05	750.12	739.44	730.03	721.91	713.99
